Test results published in PubChem BioAssay AID1999 (Broad Institute, 2009).
Inconclusive results are not listed. Calls of active or inactive are those of the source. The rule behind the calls is not given here.

Tested on: H4 cells, PrP 5'UTR luciferase reporter, luminescence
Assay: activators of PrP 5'UTR-driven reporter translation, dose response, luminescence (AID 1999)

With `C#CCOCCOCCOCCNc1nc(N2CCN(C(=O)CCCCCCCCCCNC(=O)[C@H](CCCCN)n3cc(CCCC(=O)O)nn3)CC2)nc(N2CCN(C(=O)CCCCCCCCCCNC(=O)[C@H](CCCN=C(N)N)n3cc(C[C@@H](C)CC)nn3)CC2)n1` the EC50 was > 12 µM (inactive).
